One series relates to MSS colon cancers. The note with it: drug of choice for MSS colon cancers; cited from earlier work.
The conditions of series [1]: amide bond, 15-membered ring, DEPBT/HATU/TBTU/DIEA, THF/MeCN/CH2Cl2 2:2:1, 7.0 mM, 2 steps.
Series [2] has as its system virus-encoded topoisomerase I. The conditions noted are these: poxvirus MCV; Hwang et al. 1999; cited from earlier work.

Read-outs that look alike come from different tables or passages of the source.

On to `O=c1[nH]cc(F)c(=O)[nH]1` [5-fluorouracil], for which the 50% inhibitory concentration (IC50) with MSS colon cancers was 5 µM.
In turn, `CC(C)C[C@@H]1NC(=O)[C@H](Cc2ccccc2)NC(=O)[C@H](CC(C)C)NC(=O)[C@H](C(C)C)NC(=O)[C@H](CC(C)C)NC1=O` [cyclo[-Phe-Leu-Val-Leu-Leu-]] had a ring closure, isolated yield in series [1] (from H-Leu-Leu-Val-Leu-Phe-OH?) of 65%.
On to `CC(C)C[C@@H]1NC(=O)[C@H](Cc2ccccc2)NC(=O)[C@H](CC(C)C)NC(=O)[C@H](C(C)C)NC(=O)[C@@H](CC(C)C)NC1=O` [cyclo[-Phe-Leu-Val-Xaa-Leu-] (Xaa-4 DLeu)], for which the ring closure, isolated yield in series [1] (from H-Leu-dLeu-Val-Leu-Phe-OH?) was found to be 53%.
With `CC(C)C[C@@H]1NC(=O)[C@H](C(C)C)NC(=O)[C@@H](CC(C)C)NC(=O)[C@@H](CC(C)C)NC(=O)[C@H](Cc2ccccc2)NC1=O` [cyclo[-Phe-Leu-Val-Xaa-Xaa-] (Xaa-4 DLeu, Xaa-5 DLeu)], the ring closure, isolated yield in series [1] (from H-dLeu-dLeu-Val-Leu-Phe-OH?) came out at 35%.
Regarding `CC(C)C[C@@H]1NC(=O)[C@H](C(C)C)NC(=O)[C@H](CC(C)C)N(C)C(=O)[C@@H](CC(C)C)NC(=O)[C@H](Cc2ccccc2)NC1=O` [cyclo[-Phe-Leu-Val-Xaa-Xaa-] (Xaa-4 NMeLeu, Xaa-5 DLeu)], the ring closure, isolated yield in series [1] (from H-dLeu-MeLeu-Val-Leu-Phe-OH?) stood at 40%.
In turn, `CC(C)C[C@@H]1NC(=O)[C@H](Cc2ccccc2)NC(=O)[C@H](CC(C)C)NC(=O)[C@@H](C(C)C)NC(=O)[C@H](CC(C)C)NC1=O` [cyclo[-Phe-Leu-Xaa-Leu-Leu-] (Xaa-3 DVal)] registered a ring closure, isolated yield in series [1] (from H-Leu-Leu-dVal-Leu-Phe-OH?) of 65%.
In the case of `CC(C)C[C@@H]1NC(=O)[C@H](Cc2ccccc2)NC(=O)[C@@H](CC(C)C)NC(=O)[C@H](C(C)C)NC(=O)[C@H](CC(C)C)NC1=O` [cyclo[-Phe-Xaa-Val-Leu-Leu-] (Xaa-2 DLeu)], the ring closure, isolated yield in series [1] (from H-Leu-Leu-Val-dLeu-Phe-OH?) worked out at 85%.
`CC(C)C[C@@H]1NC(=O)[C@H](Cc2ccccc2)NC(=O)[C@@H](CC(C)C)N(C)C(=O)[C@H](C(C)C)NC(=O)[C@H](CC(C)C)NC1=O` [cyclo[-Phe-Xaa-Val-Leu-Leu-] (Xaa-2 DNMeLeu)] registered a ring closure, isolated yield in series [1] (from H-Leu-Leu-Val-dMeLeu-Phe-OH?) of 81%.
`CC(C)C[C@@H]1NC(=O)[C@H](CC(C)C)NC(=O)[C@@H](Cc2ccccc2)NC(=O)[C@H](CC(C)C)NC(=O)[C@H](C(C)C)NC1=O` [cyclo[-Xaa-Leu-Val-Leu-Leu-] (Xaa-1 DPhe)]: the ring closure, isolated yield in series [1] (from H-Leu-Leu-Val-Leu-dPhe-OH?) was 39%.
For the compound `CC(C)C[C@@H]1NC(=O)[C@H](CC(C)C)NC(=O)[C@@H](Cc2ccccc2)NC(=O)[C@@H](CC(C)C)NC(=O)[C@H](C(C)C)NC1=O` [cyclo[-Xaa-Xaa-Val-Leu-Leu-] (Xaa-1 DPhe, Xaa-2 DLeu)], the ring closure, isolated yield in series [1] (from H-Leu-Leu-Val-dLeu-dPhe-OH?) amounted to 37%.
With Sansalvamide A [San A], the “inhibition of topoisomerase I” value in series [2] was “inhibitor”.

Source of the values: patent US20090264345A1, “MACROCYCLIC PEPTIDES AND METHODS FOR MAKING AND USING THEM” (priority 2006, published 2009).
